The term EC50 denotes the midpoint of the concentration-response curve.

This assay has as its target soluble guanylate cyclase (sGC) (Homo sapiens (Human), UniProt Q02108+Q02153). Nature of the assay: sGC-HEK-cGMP assay, new protocol with DETA-NONOate, LC/MS detection (Example 2C). Format: cell-based. The settings on record: read-out: Absolute EC50 (uM) - binned. As for the experimental part:
Human embryonic kidney cells (HEK293), endogenously expressing soluble guanylate cyclase (sGC), were used to evaluate the activity of test compounds. Compounds stimulating the sGC enzyme should cause an increase in the intracellular concentration of cGMP. HEK 293 cells were seeded in Dulbecco's Modification of Eagle's Medium supplemented with fetal bovine serum (10% final) and penicillin (100 U/mL)/streptomycin (100 μg/mL) in a 50 μL volume at a density of 1.5×10^4 cells/well in a poly-D-lysine coated 384 well flat bottom plate. Cells were incubated overnight at 37° C. in a humidified chamber with 5% CO2. Medium was aspirated and cells were washed with 1× Hank's Buffered Saline Salt Solution (50 μL). Cells were then incubated for 15 minutes at 37° C. with 50 μL of a 0.5 mM 3-isobutyl-1-methylxanthine (IBMX) solution. Test article and Diethylenetriamine NONOate (DETA-NONOate) solutions (x μM concentration for test article solution and 10 μM concentration for DETA-NONOate solution; wherein x is one of the following concentrations);
were then added to the assay mixture and the resulting mixture incubated at 37° C. for 20 minutes. After the 20 minute incubation, the assay mixture was aspirated and 10% acetic acid containing 150 ng/mL+3-cGMP (internal standard for LCMS) (50 μL) was added to the cells. The plate was incubated at 4° C. for 30 minutes in the acetic acid solution to stop the reaction and lyse the cells. The plates were then centrifuged at 1,000 g for 3 minutes at 4° C. and the supernatant transferred to a clean reaction plate for LCMS analysis.
cGMP concentrations were determined from each sample using the LCMS conditions below (Table 5) and calculated standard curve.
Data were normalized to a high control using the following equation: 100*(Sample−Low Control)/(High Control−Low Control), where the low control is the average of 16 samples treated with 1% DMSO, and the high control is the average of 16 samples treated with 30 μM of 1-329 Data were fit using a 4-parameter fit (log(agonist) vs. response—variable slope) using GraphPad Prism Software v.5. n=2 for all compounds. […] Compounds failing to elicit a minimum response of 50% are reported as >30 μM.

Chain of soluble guanylate cyclase (sGC) (Q02153 whole entry): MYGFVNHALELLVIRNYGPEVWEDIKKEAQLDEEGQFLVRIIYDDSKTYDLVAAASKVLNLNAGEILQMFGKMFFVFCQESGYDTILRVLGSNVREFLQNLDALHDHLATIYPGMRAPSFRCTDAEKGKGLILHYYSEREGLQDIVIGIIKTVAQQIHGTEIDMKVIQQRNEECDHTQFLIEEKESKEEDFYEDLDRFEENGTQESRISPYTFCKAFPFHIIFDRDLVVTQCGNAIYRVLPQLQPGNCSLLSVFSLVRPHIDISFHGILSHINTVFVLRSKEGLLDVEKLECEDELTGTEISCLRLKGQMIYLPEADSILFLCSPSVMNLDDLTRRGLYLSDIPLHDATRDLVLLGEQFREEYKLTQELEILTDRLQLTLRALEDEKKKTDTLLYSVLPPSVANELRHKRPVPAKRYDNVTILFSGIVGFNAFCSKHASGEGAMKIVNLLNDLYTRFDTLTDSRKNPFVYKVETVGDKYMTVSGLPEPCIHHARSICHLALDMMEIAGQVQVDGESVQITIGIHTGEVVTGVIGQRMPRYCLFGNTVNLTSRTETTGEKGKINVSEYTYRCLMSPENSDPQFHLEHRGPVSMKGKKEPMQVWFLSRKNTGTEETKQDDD
Chain of soluble guanylate cyclase (sGC) (Q02108 whole entry): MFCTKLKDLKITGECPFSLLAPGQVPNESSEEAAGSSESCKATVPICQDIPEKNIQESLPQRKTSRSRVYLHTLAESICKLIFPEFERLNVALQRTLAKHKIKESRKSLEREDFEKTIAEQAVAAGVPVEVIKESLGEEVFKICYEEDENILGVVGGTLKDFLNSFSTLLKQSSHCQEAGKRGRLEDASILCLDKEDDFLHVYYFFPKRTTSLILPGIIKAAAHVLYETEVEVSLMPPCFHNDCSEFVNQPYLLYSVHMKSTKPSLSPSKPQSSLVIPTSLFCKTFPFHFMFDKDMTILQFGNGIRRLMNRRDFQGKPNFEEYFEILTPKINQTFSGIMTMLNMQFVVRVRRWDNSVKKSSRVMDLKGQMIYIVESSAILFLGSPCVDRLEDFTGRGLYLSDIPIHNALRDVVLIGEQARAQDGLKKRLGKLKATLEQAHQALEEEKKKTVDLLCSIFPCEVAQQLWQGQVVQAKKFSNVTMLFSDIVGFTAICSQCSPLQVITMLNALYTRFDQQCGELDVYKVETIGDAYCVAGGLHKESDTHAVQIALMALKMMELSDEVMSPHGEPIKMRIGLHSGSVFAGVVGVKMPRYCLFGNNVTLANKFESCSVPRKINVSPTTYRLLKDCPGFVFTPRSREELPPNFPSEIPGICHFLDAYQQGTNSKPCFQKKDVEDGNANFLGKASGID

As to `CN(CC1(C(=O)O)CC1)c1nc(-c2cc(-c3cscn3)n(Cc3ccccc3F)n2)ncc1F` [Compound I-345], the EC50 was less than 0.1 µM.
Turning to `Fc1ccccc1Cn1nc(-c2ncc(F)c(N3CCc4[nH]nc(C(F)(F)F)c4C3)n2)cc1-c1ccon1` [Compound I-346], the EC50 is more than 1 µM.
As to `O[C@@H]1[C@H](O)CN(c2nc(-c3cc(-c4ccon4)n(Cc4ccccc4F)n3)ncc2F)C[C@@H]1O` [Compound I-347], the EC50 is less than 0.1 µM.
Turning to `NCC(O)CNc1nc(-c2cc(-c3ccon3)n(Cc3ccccc3F)n2)ncc1F` (stereo not shown) [Compound I-348], the EC50 is more than 1 µM.
Then `CS(=O)(=O)NCC(O)CNc1nc(-c2cc(-c3ccon3)n(Cc3ccccc3F)n2)ncc1F` (stereo not shown) [Compound I-349], with less than 0.1 µM.
Then `O[C@@H]1CN(c2nc(-c3cc(-c4ccon4)n(Cc4ccccc4F)n3)ncc2F)CC[C@@H]1O` [Compound I-350], with less than 0.1 µM; and `CC(C)(C)OC(=O)N1CC(O)(CNc2nc(-c3cc(-c4ccon4)n(Cc4ccccc4F)n3)ncc2F)C1` [Compound I-351], with less than 0.1 µM; and `OCC(O)(CCl)CNc1nc(-c2cc(-c3ccon3)n(Cc3ccccc3F)n2)ncc1F` (stereo not shown) [Compound I-352], with less than 0.1 µM.
Take `OC1(CNc2nc(-c3cc(-c4ccon4)n(Cc4ccccc4F)n3)ncc2F)CNC1` [Compound I-353]: the EC50 is more than 1 µM.
Turning to `O=S(=O)(NC1(CNc2nc(-c3cc(-c4ccon4)n(Cc4ccccc4F)n3)ncc2F)CC1)C(F)(F)F` [Compound I-354], the EC50 was less than 0.1 µM.
On to `OCC(O)(CNc1nc(-c2cc(-c3ccon3)n(Cc3ccccc3F)n2)ncc1F)C(F)(F)F` (stereo not shown) [Compound I-355], for which the EC50 is less than 0.1 µM.
Regarding `O=C1NCC[C@@H]1Nc1nc(-c2cc(-c3ccon3)n(Cc3ccccc3F)n2)ncc1F` [Compound I-356], the EC50 is 0.101 to 1 µM.
Take `OC(C1CN(c2nc(-c3cc(-c4ccon4)n(Cc4ccccc4F)n3)ncc2F)C1)(C(F)(F)F)C(F)(F)F` [Compound I-357]: the EC50 is more than 1 µM.
In the case of `O=C(O)C1(CNc2nc(-c3cc(-c4ccon4)n(Cc4ccccc4F)n3)ncc2F)CC1` [Compound I-358] it was less than 0.1 µM; in that of `O=C(O)C1(c2ccc(Nc3nc(-c4cc(-c5ccon5)n(Cc5ccccc5F)n4)ncc3F)cc2)CC1` [Compound I-360], less than 0.1 µM; in that of `CC(=O)c1cc(-c2ncc(F)c(NCC(O)(C(F)(F)F)C(F)(F)F)n2)nn1Cc1ccccc1F` [Compound I-362], 0.101 to 1 µM.
Consider `O=S(=O)(O)C1CCN(c2nc(-c3cc(-c4ccon4)n(Cc4ccccc4F)n3)ncc2F)CC1` [Compound I-363], for which the EC50 was more than 1 µM.
Consider `Oc1n[nH]c2c1CCN(c1nc(-c3cc(-c4ccon4)n(Cc4ccccc4F)n3)ncc1F)C2` [Compound I-370], for which the EC50 is less than 0.1 µM.
Then `CN(Cc1nc(C(=O)O)cs1)c1nc(-c2cc(-c3ccon3)n(Cc3ccccc3F)n2)ncc1F` [Compound I-373], with 0.101 to 1 µM.
Consider `O=C(O)c1cccc(CCNc2nc(-c3cc(-c4ccon4)n(Cc4ccccc4F)n3)ncc2F)c1` [Compound I-377], for which the EC50 is less than 0.1 µM.
Take `CCOC(=O)C1=C(O)CN(c2nc(-c3cc(-c4ccon4)n(Cc4ccccc4F)n3)ncc2F)CC1` [Compound I-378]: the EC50 is less than 0.1 µM.
Then `O=C(O)[C@H]1CCC[C@@H](Nc2nc(-c3cc(-c4ccon4)n(Cc4ccccc4F)n3)ncc2F)C1` [Compound I-380], with less than 0.1 µM.
On to `O=S(=O)(CCNc1nc(-c2cc(-c3ccon3)n(Cc3ccccc3F)n2)ncc1F)NCC(F)(F)F` [Compound I-381], for which the EC50 is less than 0.1 µM.
For `CNC(=O)C(C)(O)CN(C)c1nc(-c2cc(-c3ccon3)n(Cc3ccccc3F)n2)ncc1F` (stereo not shown) [Compound I-382], the EC50 is less than 0.1 µM.
For `CN(CC(C)(C)C(=O)O)c1nc(-c2cc(-c3ccon3)n(Cc3ccccc3F)n2)ncc1F` [Compound I-383], the EC50 is less than 0.1 µM.
Then `CC(=O)NS(=O)(=O)CCNc1nc(-c2cc(-c3ccon3)n(Cc3ccccc3F)n2)ncc1F` [Compound I-385], with 0.101 to 1 µM; and `O=C(Nc1ccnc(-c2cc(-c3ccon3)n(Cc3ccccc3F)n2)n1)c1cc[nH]n1` [Compound I-386], with more than 1 µM.
In the case of `O=C(NC1CN(c2nc(-c3cc(-c4ccon4)n(Cc4ccccc4F)n3)ncc2F)C1)C(F)(F)F` [Compound I-387] it was less than 0.1 µM; in that of `CC(C)(C)OC(=O)NCCNc1nc(-c2cc(-c3ccon3)n(Cc3ccccc3F)n2)ncc1F` [Compound I-390], less than 0.1 µM.
With `NCCNc1nc(-c2cc(-c3ccon3)n(Cc3ccccc3F)n2)ncc1F` [Compound I-391], the EC50 lay within 0.101 to 1 µM.
In the case of `O=S(=O)(NCCNc1nc(-c2cc(-c3ccon3)n(Cc3ccccc3F)n2)ncc1F)C(F)(F)F` [Compound I-392] it was less than 0.1 µM; in that of `CN(CC(C)(O)C(N)=O)c1nc(-c2cc(-c3ccon3)n(Cc3ccccc3F)n2)ncc1F` (stereo not shown) [Compound I-393], 0.101 to 1 µM.
With `O=S(=O)(N1CC(Nc2nc(-c3cc(-c4ccon4)n(Cc4ccccc4F)n3)ncc2F)C1)C(F)(F)F` [Compound I-394], the EC50 was more than 1 µM.
Consider `O[C@@H]1Cc2ccccc2[C@@H]1Nc1nc(-c2cc(-c3ccon3)n(Cc3ccccc3F)n2)ncc1F` [Compound I-395], for which the EC50 was less than 0.1 µM.
Then `OC1(C(F)(F)F)CN(c2nc(-c3cc(-c4ccon4)n(Cc4ccccc4F)n3)ncc2F)C1` [Compound I-396], with less than 0.1 µM.
Then `OC1(CNc2nc(-c3cc(-c4ccon4)n(Cc4ccccc4F)n3)ncc2F)CCOCC1` [Compound I-397], with less than 0.1 µM; and `O=C(O)C(CC(F)F)Nc1nc(-c2cc(-c3ccon3)n(Cc3ccccc3F)n2)ncc1F` (stereo not shown) [Compound I-398], with more than 1 µM.
In the case of `OCC(CC(F)F)Nc1nc(-c2cc(-c3ccon3)n(Cc3ccccc3F)n2)ncc1F` (stereo not shown) [Compound I-399] it was less than 0.1 µM; in that of `COC(=O)[C@@H]1CCC(=O)N1c1nc(-c2cc(-c3ccon3)n(Cc3ccccc3F)n2)ncc1F` [Compound I-401], more than 1 µM; in that of `O=c1c(O)c(Nc2ccnc(-c3cc(-c4ccon4)n(Cc4ccccc4F)n3)n2)c1=O` [Compound I-402], more than 1 µM.
For `O=C(O)C(Nc1nc(-c2cc(-c3ccon3)n(Cc3ccccc3F)n2)ncc1F)C(F)(F)F` (stereo not shown) [Compound I-403], the half-maximal effective concentration (EC50) lay within 0.101 to 1 µM.
On to `OCC(Nc1nc(-c2cc(-c3ccon3)n(Cc3ccccc3F)n2)ncc1F)C(F)(F)F` (stereo not shown) [Compound I-404], for which the EC50 was 0.101 to 1 µM.
For the molecule `CC1(C(=O)O)CCCN(c2nc(-c3cc(-c4ccon4)n(Cc4ccccc4F)n3)ncc2F)C1` (stereo not shown) [Compound I-406], the EC50 was less than 0.1 µM.
Turning to `OCCNc1nc(-c2cc(-c3ccon3)n(Cc3ccccc3F)n2)ncc1F` [Compound I-407], the EC50 was less than 0.1 µM.
As for `OCCCNc1nc(-c2cc(-c3ccon3)n(Cc3ccccc3F)n2)ncc1F` [Compound I-408], the EC50 was less than 0.1 µM.
For the molecule `CCN(CC1(C(=O)O)CC1)c1nc(-c2cc(-c3ccon3)n(Cc3ccccc3F)n2)ncc1F` [Compound I-409], the EC50 is less than 0.1 µM.
For `Cc1cc(-c2ncc(F)c(=O)[nH]2)nn1Cc1ccccc1F` [Compound I-410], the EC50 was more than 1 µM.
In the case of `Cc1cc(-c2ncc(F)c(N(C)CC3(C(=O)O)CC3)n2)nn1Cc1ccccc1F` [Compound I-411], the EC50 is 0.101 to 1 µM.
On to `Cc1cc(-c2ncc(F)c(N3CCC[C@H](C)[C@@H]3C(=O)O)n2)nn1Cc1ccccc1F` [Compound I-412], for which the EC50 was more than 1 µM.
In the case of `Cc1cc(-c2ncc(F)c(NC(CO)CO)n2)nn1Cc1ccccc1F` [Compound I-413], the EC50 is more than 1 µM.
As to `Cc1cc(-c2ncc(F)c(NCC(O)(C(F)(F)F)C(F)(F)F)n2)nn1Cc1ccccc1F` [Compound I-414], the EC50 was more than 1 µM.
Consider `O=C(Nc1nc(-c2cc(-c3ccon3)n(Cc3ccccc3F)n2)ncc1F)C1(C(F)(F)F)CC1` [Compound I-415], for which the EC50 is more than 1 µM.
For the molecule `OCC(CO)Nc1cnnc(-c2cc(-c3ccon3)n(Cc3ccccc3F)n2)n1` [Compound I-416], the EC50 was more than 1 µM.
Then `NC(=O)CNc1nc(-c2cc(-c3ccon3)n(Cc3ccccc3F)n2)ncc1F` [Compound I-417], with 0.101 to 1 µM.
`O=C(O)CC(Nc1nc(-c2cc(-c3ccon3)n(Cc3ccccc3F)n2)ncc1F)C(F)(F)F` (stereo not shown) [Compound I-418]: the EC50 fell in the range of 0.101 to 1 µM.
For `NC(=O)CC(Nc1nc(-c2cc(-c3ccon3)n(Cc3ccccc3F)n2)ncc1F)C(F)(F)F` (stereo not shown) [Compound I-419], the EC50 is more than 1 µM.
Consider `CCOC(=O)C1(C)C(=O)Nc2nc(-c3cc(-c4ccon4)n(Cc4ccccc4F)n3)nc(N)c21` (stereo not shown) [Compound I-420], for which the EC50 is less than 0.1 µM.
In the case of `CC1(C(N)=O)C(=O)Nc2nc(-c3cc(-c4ccon4)n(Cc4ccccc4F)n3)nc(N)c21` (stereo not shown) [Compound I-421] it was 0.101 to 1 µM.
